Source: patent US20100324303A1, “Use of Tetramic Acid Derivatives for Controlling Animal Pests After Treatment of the Trunk, the Branches, the Influorescences or the Buds” (Bayer CropScience AG, priority 2008, published 2010)
Where two headings read alike, the source gives them in different places.

Assays:
Assay type in all cases: in vivo
[1] = system: banana flower thrips (Thrips hawaiiensis); assay: Flower bud injection on banana trees against banana flower thrips; conditions: banana cv. Cavendish, 80 ml injected into flower buds, destruction of population on influorescences and bunches, imidacloprid (100 SL) 0.1 g a.i./l, Example (II) (100 OD) 0.3 g a.i./l; for Activity in % Abbott 3 d: 3 days after treatment; for Activity in % Abbott 91 d: 91 days after treatment
Description: Banana trees cv. “Cavendish” are treated in three replications against banana flower thrips (Thrips hawaiiensis). Here, the active substances Example (II) (100 OD) are tested versus the commercial standard imidacloprid (100 SL) at the application rates specified. The application is carried out by injecting in each case 80 ml of injection solution into the flower buds. In each case three flower buds are treated. The evaluation is effected 3 and 91 days after the treatment by scoring the destruction of the population on the influorescences and bunches.

[2] = system: pineapple mealybug Dysmicoccus brevipes; assay: Pseudostem (and foliar) spray application on banana trees against pineapple mealybug; conditions: banana cv. Cavendish, 50 ml on leaves and 50 ml on peeled stem, mealybug on the stem, Banole oil 30 g/l, chlorpyrifos-methyl 0.8 g/l, (II) SC 240 0.3 g/l in tank mix with 0.025% Hoestick
Description: Banana trees (growth stage BBCH 1130) cv. “Cavendish” consisting of mother plant and sucker are treated in three replications following foliar treatment against Aspidiotus destructor and against the pineapple mealybug Dysmicoccus brevipes by pseudostem application. To this end, in each case 100 ml of spray solution are applied, in each case 50 ml being sprayed onto the leaves and 50 ml onto the stem. Before the stem application, the outermost stem layer is first peeled off, which is general practice. Here, the active substance (II) (SC 240) is tested in a tank mix along with 0.025% Hoestick (XL 500) versus the commercial standards chlorpyrifos-methyl (500 EC) and liquid paraffin (Banole oil) (EC 600).
The evaluation is carried out 3, 7, 14 and 22 days after the treatment by scoring the destruction of the pineapple mealybug on the stem.

[3] = system: California red scale Aonidiella aurantii; assay: Stem application by painting on to orange trees against California red scale; conditions: 205 days after treatment, orange trees cv. Valencia, infestation on the fruits, imidacloprid 2 g a.i./tree, Example (II) (SC 240) 4 g a.i./tree
Description: Young orange trees cv. “Valencia” which are approximately 5 years old are treated in three applications against the California red scale Aonidiella aurantii after stem application by painting on the active substances. Here, the active substance (II) (SC 240) is tested versus the commercial standard imidacloprid at the application rates detailed. The evaluation is carried out 205 days after the treatment by scoring the infestation on the fruits.

SMILES | Activity in % Abbott 3 d [1] [% Abbott] | Activity in % Abbott 91 d [1] [% Abbott] | inhibition at 300 µg/mL ([2]; SC240, 72 h, 3 days after treatment, read-out: Activity (%) Abbott 3 d) [%] | inhibition at 300 µg/mL ([2]; SC240, 168 h, 7 days after treatment, read-out: Activity (%) Abbott 7 d) [%] | inhibition at 300 µg/mL ([2]; SC240, 336 h, 14 days after treatment, read-out: Activity (%) Abbott 14 d) [%] | inhibition at 300 µg/mL ([2]; SC240, 528 h, 22 days after treatment, read-out: Activity (%) Abbott 22 d) [%] | Efficacy (% Abbott) [3] [% Abbott]
CCOC(=O)OC1=C(c2cc(C)ccc2C)C(=O)N[C@]12CC[C@@H](OC)CC2 [Example (II)] | 66.7 | 100 | 81.2 | 92.3 | 96.4 | 96.7 | 100
O=[N+]([O-])NC1=NCCN1Cc1ccc(Cl)nc1 [Imidacloprid, imidacloprid, reference compound] | 98.4 | 100 |  |  |  |  | 100
